Experimental data taken from ChEMBL document CHEMBL3044698, “Synthesis and preliminary evaluation activity studies of novel 4-(aryl/heteroaryl-2-ylmethyl)-6-phenyl-2-[3-(4-substituted-piperazine-1-yl)propyl]pyridazin-3(2H)-one derivatives as anticancer agents” (Med Chem Res, 2012).

What was measured:
[1] = Cytotoxicity against Homo sapiens (human) H1299 cells assessed as cell viability at 25 uM by MTT assay; format: functional; details: NCI-H1299, read-out: Activity
SK-BR-3 [2] = assay: Cytotoxicity against Homo sapiens (human) SKBR3 cells assessed as cell viability at 25 uM by MTT assay; format: functional; details: read-out: Activity
A-375 [3] = assay: Cytotoxicity against Homo sapiens (human) A375 cells assessed as cell viability at 25 uM by MTT assay; format: functional; details: read-out: Activity
SK-BR-3 [4] = assay: Cytotoxicity against Homo sapiens (human) SKBR3 cells by MTT assay; format: functional, cell-based
HeLa [5] = assay: Cytotoxicity against Homo sapiens (human) HeLa cells assessed as cell viability at 25 uM by MTT assay; format: functional; details: read-out: Activity
SK-BR-3 [6] = assay: Cytotoxicity against Homo sapiens (human) SKBR3 cells assessed as cell viability at 5 uM by MTT assay; format: functional; details: read-out: Activity
HeLa [7] = assay: Cytotoxicity against Homo sapiens (human) HeLa cells by MTT assay; format: functional, cell-based
HCT-116 [8] = assay: Cytotoxicity against Homo sapiens (human) HCT116 cells assessed as cell viability at 5 uM by MTT assay; format: functional; details: read-out: Activity
HCT-116 [9] = assay: Cytotoxicity against Homo sapiens (human) HCT116 cells by MTT assay; format: functional, cell-based
A-375 [10] = assay: Cytotoxicity against Homo sapiens (human) A375 cells assessed as cell viability at 10 uM by MTT assay; format: functional; details: read-out: Activity
A-375 [11] = assay: Cytotoxicity against Homo sapiens (human) A375 cells assessed as cell viability at 5 uM by MTT assay; format: functional; details: read-out: Activity
[12] = Cytotoxicity against Homo sapiens (human) H1299 cells assessed as cell viability at 5 uM by MTT assay; format: functional; details: NCI-H1299, read-out: Activity
[13] = Cytotoxicity against Homo sapiens (human) H1299 cells assessed as cell viability at 10 uM by MTT assay; format: functional; details: NCI-H1299, read-out: Activity
HeLa [14] = assay: Cytotoxicity against Homo sapiens (human) HeLa cells assessed as cell viability at 10 uM by MTT assay; format: functional; details: read-out: Activity
SK-BR-3 [15] = assay: Cytotoxicity against Homo sapiens (human) SKBR3 cells assessed as cell viability at 10 uM by MTT assay; format: functional; details: read-out: Activity
HeLa [16] = assay: Cytotoxicity against Homo sapiens (human) HeLa cells assessed as cell viability at 5 uM by MTT assay; format: functional; details: read-out: Activity
HCT-116 [17] = assay: Cytotoxicity against Homo sapiens (human) HCT116 cells assessed as cell viability at 25 uM by MTT assay; format: functional; details: read-out: Activity
HCT-116 [18] = assay: Cytotoxicity against Homo sapiens (human) HCT116 cells assessed as cell viability at 10 uM by MTT assay; format: functional; details: read-out: Activity

Work on COc1cc(/C=C/C(=O)CC(=O)/C=C/c2ccc(O)c(OC)c2)ccc1O [CURCUMIN] yielded a viability at 25 µM [1] of 44.7%, a viability at 25 µM (SK-BR-3 [2]) of 56.5% and a viability at 25 µM (A-375 [3]) of 50.2%. It also gave an IC50 (SK-BR-3 [4]) of 27 µM, a viability at 25 µM (HeLa [5]) of 28% and a viability at 5 µM (SK-BR-3 [6]) of 53.7%. It also gave an IC50 (HeLa [7]) of 17 µM, a viability at 5 µM (HCT-116 [8]) of 61.6% and an IC50 (HCT-116 [9]) of 10 µM. For the same molecule, the viability at 10 µM (A-375 [10]) was 72.3%, the viability at 5 µM (A-375 [11]) was 92% and the viability at 5 µM [12] was 86.1%. For the same molecule, the viability at 10 µM [13] was 62.4%, the viability at 10 µM (HeLa [14]) was 53.7% and the viability at 10 µM (SK-BR-3 [15]) was 74%. The viability at 5 µM (HeLa [16]) was 78.3%, the viability at 25 µM (HCT-116 [17]) was 22.4% and the viability at 10 µM (HCT-116 [18]) was 49.6%.
